≈ marks a conversion by molar mass, not a printed value.
Assays:
[1] = PBMC viability assay by MTT; type: cell-based, human; conditions: MTT 48 h, non-tumour human PBMC
Method: (§1) The SI indicates how selective a compound is for a tumour cell line compared with a non-tumour cell line.
(§2) Human peripheral blood mononuclear cells (PBMCs) were used to determine the selectivity index (SI) and were obtained from healthy volunteers under a protocol approved by the Ethics Committee CAAE: 38257914.7.0000.5259. Immortalized cells were also obtained from the Rio de Janeiro Cell Bank (BCRJ).
(§3) First, 8 mL of blood from each healthy donor (3 people) was collected in a tube with EDTA in a 1:20 ratio to prevent the blood from clotting. In a 15 mL Falcon tube containing 4 mL of Ficoll-Paque, the 8 mL of blood collected was slowly added, letting it fall down the walls of the tube. It was centrifuged (Universal Centrifuge 320R Hettich) for 40 min at 750× g at 21 °C with acceleration 1 and brake 0. After centrifugation, in order to extract the ring of mononuclear cells, the supernatant above it was first carefully discarded so as not to disturb the ring. The ring was then slowly removed and placed in another 15 mL Falcon tube to which pure RPMI-1640 medium was added in a 1:1 ratio and centrifuged for 10 min at 580× g and 21 °C with acceleration 8 and brake 9 [34, 35].
(§4) The supernatant was discarded, and the pellet was resuspended in 1 mL of RPMI-1640 medium supplemented with 10% SBF and 1% antibiotic. An amount of 20 µL of cells were taken from the mixture and added to 380 µL of trypan blue dye for counting in the Neubauer chamber. Considering that 80% of PBMCs are lymphocytes and the rest are monocytes, the cells were plated with the aim of having 10^5 cell/well.

[2] = system: human peripheral blood mononuclear cells (hPBMC); test: PBMC viability assay by MTT; type: cell-based; conditions: MTT 48 h; for Emax: human PBMC, maximum cytotoxic response at 100 µM; for CC50: non-tumour human PBMC
Method: as §1, §2, §3, §4

[3] = PAMPA—GIT; type: in vitro ADME; conditions: for Papp: PAMPA, read-out: Pe. Exp. GIT
Method: To obtain information on the permeability potential of LASSBio-2208 on cell membranes, this derivative was tested using the parallel artificial membrane permeability assay (PAMPA) that is used as an in vitro model of passive diffusion and transcellular permeation. In this model, the permeability across two artificial membranes is measured: brain lipid from pig extract in dodecane (called PAMPA—BBB) and L-α soy phosphatidylcholine in dodecane (called PAMPA—TGI).
To perform the permeability assay we used a donor plate where the compounds (tests or controls) are diluted in a buffered medium, characterized by the presence of a synthetic membrane of polyvinylidene fluoride (PVDF) impregnated with a lipid solution, forming a barrier through which the compounds migrate through a diffusion process to the lower plate called the receptor.
The lipid mixture that impregnates the filter has a different constitution for the permeability tests for the blood–brain barrier (brain lipid from pig extract in dodecane) and gastrointestinal tract (L-α soy phosphatidylcholine in dodecane). In the PAMPA—BBB and PAMPA—GIT assays, the optical density values obtained in the reading at each selected wavelength, for each of the compounds were analysed in comparison with the values of several controls. In the case of the BBB, these values were used to elaborate an equation and determine the permeability coefficient (Pe), using a previously elaborated spreadsheet, and, for the PAMPA—GIT, these values were used to determine the absorbed fraction (Fa%), both using the Excel program. The permeability result for PAMPA—GIT classifies the compounds according to the percentage of absorbed fraction (Fa%), as follows: high intestinal permeability (70–100%), medium permeability (30–69%) or low permeability (0–29%), and the samples were diluted from a stock solution of 10 mM. The PAMPA—BBB model classifies the compounds only as follows: permeable (CNS+) or non-permeable (CNS−) and the assays were made from a stock solution of 1 mg for each compound [25, 40, 41, 42].

[4] = Plasma stability; type: in vitro ADME, rat; conditions: for recovery at 10 μM / half-life at 10 μM: rat plasma diluted with phosphate buffer, pH 7.4; for recovery at 10 μM: rat plasma stability assay; for metabolic stability in rat plasma (in words) / half-life at 10 μM / Elimination Rate Constant (k) / Metabolization Rate: rat plasma; for half-life at 10 μM / Elimination Rate Constant (k) / Metabolization Rate: 37 °C, 10 μM; for Metabolization Rate: 0–240 min
Method: Considering that both LASSBio-2208 and LASSBio-1911 have, in their structures, the N-acylhydrazone and hydroxamic acid fragments, both susceptible to metabolic hydrolysis, metabolic stability in plasma was conducted with both compounds.
LASSBio-2208 and LASSBio-1911, in a final concentration of 10 μM from stock solution of 1 mM, was added in 50 μL of rat plasma solution diluted in 250 μL with phosphate buffer (pH 7.4) and was placed in a shaker at 37 °C under vigorous stirring for 0, 30, 60, 120 and 240 min. After each reaction time, 1 mL of cold acetonitrile containing 2 uM internal standard was added to the wells to stop the reaction. The solution was mixed and centrifuged at 24,500× g for 15 min (Universal Centrifuge 320R Hettich). The supernatant (1 mL) was filtrated and placed in vials to be analysed by HPLC.

[5] = system: PI3Kα; conditions: cited from earlier work
[6] = system: PI3Kβ; conditions: cited from earlier work
[7] = system: PI3Kδ; conditions: cited from earlier work
[8] = system: PI3Kγ; conditions: cited from earlier work
[9] = system: mTOR; conditions: cited from earlier work
[10] = design: method as in PMID 32022441; conditions: cited from earlier work
[11] = design: method as in PMID 32022441; conditions: cited from earlier work; remark: listed apart in the source
[12] = system: PC3 prostate carcinoma cell line; design: method as in PMID 33919077; conditions: cited from earlier work
[13] = system: PC3 prostate carcinoma cell line; design: method as in PMID 33919077; conditions: PC3, flow cytometry, 24 h assay; cited from earlier work

SMILES	CC50 at 48 h [1]	Emax [2]	CC50 [2]	Fraction Absorbed [3]	Papp [3]	metabolic stability in rat plasma (in words) [4]	recovery at 10 μM [4]	half-life at 10 μM [4]	Elimination Rate Constant (k) [4]	Metabolization Rate [4]	other results
CN(C)c1ccc(C(=O)N/N=C/c2ccc(C(=O)NO)cc2)cc1 [LASSBio-1911]	> 100000 nM	31.1%	no cytotoxic effect	20.15%	0.359 ×10⁻⁶ cm/s	high metabolic stability	73.4%	6.42 h	0.0018	36.14%	Pe. Exp. GIT [3]: 0.592 10^−6 cm/s
O=C(NO)c1ccc(/C=N/NC(=O)c2cc(N3CCOCC3)nc(-c3cccc(O)c3)n2)cc1 [LASSBio-2208]	> 100000 nM	29.9%	no cytotoxic effect	13.78%	0.39 ×10⁻⁶ cm/s	high metabolic stability	75.5%	14.4 h	0.0008	20.61%	IC50 [5]: 46.3 nM; IC50 [6]: 72.8 nM; IC50 [7]: 72.4 nM; IC50 [8]: 1300 nM; IC50 [9]: 464 nM; aqueous solubility (thermodynamic solubility) [10]: 1.81 µM (≈ 0.837 µg/mL); calculated logP [11]: 1.96; reduction of cell viability ([12]; PC3, MTT 24 h, highest concentration studied (5 µM)): ~50%; effect on cell viability ([12]; PC3, MTT 48 h, 0.01–5 µM): no effect on cell viability; cell cycle effect [13]: cell cycle arrest in the G2/M phase; initial cell apoptosis, share of cell population [13]: 60–66%
